According to US4352802A, “Bicyclo[3.3.1]nonyl-benzamide” (Beecham Group Limited, priority 1980, dated 1982):

Key:
Assay type in all cases: in vivo
Dopamine Receptor [1] = assay: Inhibition of apomorphine induced climbing in the mouse (dopamine receptor blocking activity in the central nervous system); conditions: p.o., apomorphine 1 mg/kg s.c., not necessarily the lowest active dose
Experimental: II. Dopamine Receptor Blocking Activity in the Central Nervous System
Compounds were tested for inhibition of apomorphine induced climbing in the mouse. The test is based on that described by Protais, P., Constantin, J. and Schwartz J. C. (1976), Psychopharmacology, 50, 1-6.
Apomorphine 1 mg/kg s.c. induces mice to climb the wall of a wire cage (inverted food hopper-11×7.5×18 cm high). Mice acclimatised in their home cages in groups of 5 are placed under the hoppers immediately after the injection of apomorphine 1 mg/kg s.c. At 10,20 and 30 minutes after injection climbing behaviour is scored. The mice are observed for 30 seconds and scored according to the position they spend the majority of time in, score 0--four paws on floor of cage; score 1--[…]; score 2--all paws on wall of cage. The scores at all 3 times and for each mouse are summed and mice drug treated orally compared to mice receiving apomorphine only. A saline only treated group is also included and any score, generally <5% of maximum taken into account.

[2] = system: vomiting response to apomorphine HCl; assay: Anti-emetic activity in the dog (apomorphine-induced vomiting); conditions: Canis lupus familiaris, sc, 30 minutes prior to apomorphine HCl 0.1 mg/kg s.c.
Experimental: I. Anti-emetic activity in the dog
Compounds were administered subcutaneously 30 minutes prior to administration of a standard dose of apomorphine HCl (0.1 mg/kg subcutaneously) and the vomiting response compared to that obtained when the same animals were dosed with apomorphine HCl and vehicle only.

[3] = system: inhibitory effect of 6,7-ADTN on gastric motility; assay: Gastric motility testing in the rat (reversal of 6,7-ADTN inhibition); conditions: conscious chronic gastric fistula rat, 1 mg/kg s.c., 10 minutes after 6,7-ADTN 1 mg/kg s.c.
Experimental: III. Gastric Motility Testing in the rat
The compounds were tested for ability to reverse the inhibitory effect of 6,7-ADTN on gastric motility as recorded by an open tipped catheter in the conscious chronic gastric fistula rat. Administration of 1 mg/kg s.c. of 6,7-ADTN reduced basal gastric motor activity and this was reversed by the administration of the compound administered 10 minutes after the 6,7-ADTN. […] For subcutaneous testing the compound was dissolved in water by the addition of tartaric acid (1/2 mole per mole of compound).

Dopamine Receptor [4] = assay: Inhibition of apomorphine induced climbing in the mouse (dopamine receptor blocking activity in the central nervous system); conditions: s.c., apomorphine 1 mg/kg s.c., not necessarily the lowest active dose

COc1cc(N)c(Cl)cc1C(=O)N[C@@H]1C[C@H]2COC[C@@H](C1)N2Cc1ccc(C)cc1 [Compound 22, 2-Methoxy-5-chloro-4-amino-[N-(9-(4-methylbenzyl)-9-aza-3-oxabicyclo(3,3,1)nonan-7β-yl)]benzamide]
Active Dose (inhibition of apomorphine induced climbing) (Dopamine Receptor [1]): 10 mg/kg

COc1ccc(CN2[C@@H]3COC[C@H]2C[C@H](NC(=O)c2cc(Cl)c(N)cc2OC)C3)cc1 [Compound 19, 2-Methoxy-5-chloro-4-amino-[N-(9-(4-methoxybenzyl)9-aza-3-oxabicyclo(3,3,1)nonan-7β-yl)]benzamide]
Active Dose (inhibition of apomorphine induced climbing) (Dopamine Receptor [1]): 10 mg/kg

COc1cc(N)c(Cl)cc1C(=O)N[C@@H]1C[C@H]2COC[C@@H](C1)N2Cc1ccc(Cl)c(Cl)c1 [Compound 20, 2-Methoxy-5-chloro-4-amino-[N-(9-(3,4-dichlorobenzyl)-9-aza-3-oxabicyclo(3,3,1)nonan-7β-yl)]benzamide]
Active Dose (inhibition of apomorphine induced climbing) (Dopamine Receptor [1]): 10 mg/kg

COc1cc(N)c(Cl)cc1C(=O)N[C@@H]1C[C@H]2COC[C@@H](C1)N2CC1CCCCC1 [Compound 26]
Active Dose (inhibition of apomorphine induced climbing) (Dopamine Receptor [1]): 10 mg/kg

COc1ccc(S(C)(=O)=O)cc1C(=O)N[C@@H]1C[C@H]2CSC[C@@H](C1)N2Cc1ccccc1 [Compound 5, 2-Methoxy-5-methylsulphonyl-N-[9-benzyl-9-aza-3-thiabicyclo (3,3,1)nonan-7β-yl]benzamide]
ED50 [2]: 0.1 mg/kg
Reversal of the action of 6,7-ADTN on gastric motility [3]: reversed the action of 6,7-ADTN
Active Dose (inhibition of apomorphine induced climbing) (Dopamine Receptor [4]): 50 mg/kg

COc1cccc(C(=O)N[C@@H]2C[C@H]3COC[C@@H](C2)N3Cc2ccccc2)c1OC [Compound 6, 2,3-Dimethoxyj-[N-(9-benzyl-9-aza-3-oxabicyclo(3,3,1)nonan-7β-yl)]benzamide]
Active Dose (inhibition of apomorphine induced climbing) (Dopamine Receptor [1]): 2 mg/kg

COc1cc(NC(C)=O)c(Cl)cc1C(=O)N[C@@H]1C[C@H]2COC[C@@H](C1)N2Cc1ccccc1 [Compound 1, 2-Methoxy-5-chloro-4-acetamido-N-[9-benzyl-9-aza-3-oxabicyclo(3,3,1)nonan-7β-yl]-benzamide]
Active Dose (inhibition of apomorphine induced climbing) (Dopamine Receptor [1]): 2 mg/kg

COc1cc(N)c(Cl)cc1C(=O)N[C@@H]1C[C@H]2COC[C@@H](C1)N2Cc1cccc(C(F)(F)F)c1 [Compound 21, 2-Methoxy-5-chloro-4-amino-[N-(9-(3-trifluoromethylbenzyl)-9-aza-3-oxabicyclo(3,3,1)nonan-7β-yl)]benzamide]
Active Dose (inhibition of apomorphine induced climbing) (Dopamine Receptor [1]): 50 mg/kg

COc1cc(N)c(Cl)cc1C(=O)N[C@@H]1C[C@H]2COC[C@@H](C1)N2Cc1ccc(Cl)cc1 [Compound 18, 2-Methoxy-5-chloro-4-amino-[N-(9-(4-chlorobenzyl)-9-aza-3-oxabicyclo(3,3,1)nonan-7β-yl)]benzamide]
Active Dose (inhibition of apomorphine induced climbing) (Dopamine Receptor [1]): 10 mg/kg

COc1cc(N)c(Cl)cc1C(=O)N[C@@H]1C[C@H]2COC[C@@H](C1)N2Cc1cccs1 [Compound 24, 2-Methoxy-5-chloro-4-amino-[N-(9-(2-thenyl)-9-aza-3-oxabicyclo(3,3,1)nonan-7β-yl)]benzamide]
Active Dose (inhibition of apomorphine induced climbing) (Dopamine Receptor [1]): 10 mg/kg

CCCCCCN1[C@@H]2COC[C@H]1C[C@H](NC(=O)c1cc(Cl)c(N)cc1OC)C2 [Compound 23, 2-Methoxy-5-chloro-4-amino[N-(9-(n-hexyl)-9-aza-3-oxabicyclo(3,3,1)nonan-7β-yl)]benzamide]
Active Dose (inhibition of apomorphine induced climbing) (Dopamine Receptor [1]): 10 mg/kg

COc1cc(N)c(Cl)cc1C(=O)N[C@@H]1C[C@H]2COC[C@@H](C1)N2CCC(C)C [Compound 25, 2-Methoxy-5-chloro-4-amino-[N-(9-(3-methylbutyl)-9-aza-3-oxabicyclo(3,3,1)nonan-7β-yl)]benzamide]
Active Dose (inhibition of apomorphine induced climbing) (Dopamine Receptor [1]): 10 mg/kg

COc1cc(N)c(Cl)cc1C(=O)N[C@@H]1C[C@H]2COC[C@@H](C1)N2Cc1ccccc1 [Compound 2, 2-Methoxy-5-chloro-4-amino-N-[9-benzyl-9-aza-3-oxabicyclo(3,3,1)nonan-7β-yl]-benzamide]
ED50 [2]: 0.005 mg/kg
Active Dose (inhibition of apomorphine induced climbing) (Dopamine Receptor [1]): 1 mg/kg
Reversal of the action of 6,7-ADTN on gastric motility [3]: reversed the action of 6,7-ADTN
